Measured values taken from US20210255193A1, “LYSINE REACTIVE PROBES AND USES THEREOF” (The Scripps Research Institute, priority 2017, published 2021).

What was measured:
[1] = molecular target: T1, GABARAPL2 Gamma-aminobutyric acid receptor-associated protei (Homo sapiens, UniProt P60520); assay: competitive isoTOP-ABPP; type: binding; details: for R value (DMSO/fragment) for probe 1 labeling: P60520_K46; for R value (DMSO/fragment) for probe 1 labeling / isoTOP-ABPP reactivity ratio at lysine P60520_K46 / isoTOP-ABPP ratio (R) at liganded lysine P60520_K46: 50 uM, in vitro; for R value (DMSO/fragment) for probe 1 labeling / isoTOP-ABPP reactivity ratio at lysine P60520_K46: 231 sol; for isoTOP-ABPP ratio (R) at liganded lysine P60520_K46: sol, 231
T1 construct: isoTOP-ABPP experiments performed in cell lysates (in vitro); endogenous in cells; host or cells: soluble proteome of human cancer cell lines (MDA-MB-231, Ramos, Jurkat)
Summary of the method: (§1)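 Here, isoTOP-ABPP measures loss of STP-alkyne labeling at individual lysines after fragment exposure in lysate. Activated esters are dosed at 50 μM, guanidinylating agents at 100 μM; the probe follows at 0.1 mM for 1 h. R ≥4 marks a liganded lysine.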

[2] = molecular target: T2, KIAA1033 WASH complex subunit 7 (Homo sapiens, UniProt Q2M389); assay: competitive isoTOP-ABPP; type: binding; details: for R value (DMSO/fragment) for probe 1 labeling: Q2M389_K302; for R value (DMSO/fragment) for probe 1 labeling / isoTOP-ABPP reactivity ratio at lysine Q2M389_K302 / isoTOP-ABPP ratio (R) at liganded lysine Q2M389_K302: 50 uM, in vitro; for R value (DMSO/fragment) for probe 1 labeling / isoTOP-ABPP reactivity ratio at lysine Q2M389_K302: 231 sol; for isoTOP-ABPP ratio (R) at liganded lysine Q2M389_K302: sol, 231
T2 construct: isoTOP-ABPP experiments performed in cell lysates (in vitro); endogenous in cells; host or cells: soluble proteome of human cancer cell lines (MDA-MB-231; Ramos and Jurkat also prepared)
T2 sequence (Q2M389 1-1173): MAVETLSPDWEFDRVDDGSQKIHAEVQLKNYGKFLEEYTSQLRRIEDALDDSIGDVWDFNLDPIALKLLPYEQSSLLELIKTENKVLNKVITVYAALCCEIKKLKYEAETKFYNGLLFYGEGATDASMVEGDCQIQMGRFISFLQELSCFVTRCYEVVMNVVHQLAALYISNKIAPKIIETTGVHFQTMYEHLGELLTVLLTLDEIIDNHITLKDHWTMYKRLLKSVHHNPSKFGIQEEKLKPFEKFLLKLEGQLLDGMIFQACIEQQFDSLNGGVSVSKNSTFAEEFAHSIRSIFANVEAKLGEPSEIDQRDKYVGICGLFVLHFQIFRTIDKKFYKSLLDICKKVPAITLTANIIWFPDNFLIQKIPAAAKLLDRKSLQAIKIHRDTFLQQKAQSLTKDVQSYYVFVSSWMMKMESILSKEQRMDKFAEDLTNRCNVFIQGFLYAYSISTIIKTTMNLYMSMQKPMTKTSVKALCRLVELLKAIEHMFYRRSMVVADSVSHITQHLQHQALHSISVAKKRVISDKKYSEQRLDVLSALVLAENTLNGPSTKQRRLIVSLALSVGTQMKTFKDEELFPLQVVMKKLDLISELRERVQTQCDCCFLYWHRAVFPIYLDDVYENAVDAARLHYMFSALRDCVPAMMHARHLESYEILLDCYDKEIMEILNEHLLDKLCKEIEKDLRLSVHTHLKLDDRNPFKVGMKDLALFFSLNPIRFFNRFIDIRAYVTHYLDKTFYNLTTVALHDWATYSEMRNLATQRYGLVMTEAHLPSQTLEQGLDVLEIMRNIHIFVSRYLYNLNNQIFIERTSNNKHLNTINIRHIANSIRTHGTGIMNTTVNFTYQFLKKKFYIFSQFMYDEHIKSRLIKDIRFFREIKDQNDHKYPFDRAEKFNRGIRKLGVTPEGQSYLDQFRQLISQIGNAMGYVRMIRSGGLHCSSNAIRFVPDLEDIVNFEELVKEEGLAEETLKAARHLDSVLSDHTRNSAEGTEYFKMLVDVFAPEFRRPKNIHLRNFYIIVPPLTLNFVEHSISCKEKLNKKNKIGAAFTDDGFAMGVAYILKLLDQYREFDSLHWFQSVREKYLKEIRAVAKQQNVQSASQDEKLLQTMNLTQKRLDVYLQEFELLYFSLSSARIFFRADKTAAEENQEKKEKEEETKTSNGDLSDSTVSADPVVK
Summary of the method: as §1

T1 sequence (P60520 1-116 limits assumed): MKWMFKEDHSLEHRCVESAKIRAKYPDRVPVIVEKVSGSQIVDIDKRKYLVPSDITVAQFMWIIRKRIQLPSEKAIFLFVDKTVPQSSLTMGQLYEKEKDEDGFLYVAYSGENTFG

For `O=C(CCc1cn(-c2ccccc2)nc1-c1ccccc1)Oc1c(F)c(F)c(F)c(F)c1F` [fragment 19, Pentafluorophenyl 3-(1,3-diphenyl-1H-pyrazol-4-yl)propanoate], the “R value (DMSO/fragment) for probe 1 labeling” value (“R value (DMSO/fragment)” below) [1] was 1.2 and the “R value (DMSO/fragment)” value [2] was 0.8.
In the case of `O=C(Oc1c(F)c(F)c(F)c(F)c1F)C(c1ccccc1)c1ccccc1` [fragment 20, Pentafluorophenyl 2,2-diphenylacetate], the “R value (DMSO/fragment)” value [1] is reported as 0.9 and the “R value (DMSO/fragment)” value [2] is reported as 0.9.
With `O=C(Oc1c(F)c(F)c(F)c(F)c1F)c1cc(C(F)(F)F)cc(C(F)(F)F)c1` [fragment 21, Pentafluorophenyl 3,5-bis(trifluoromethyl)benzoate] the “R value (DMSO/fragment)” value [1] was 0.8.
With `Cn1cc(CC(=O)Oc2c(F)c(F)c(F)c(F)c2F)c2ccccc21` [fragment 22, Pentafluorophenyl 2-(1-methyl-1H-indol-3-yl)acetate] the “R value (DMSO/fragment)” value [1] was 0.8 and the “R value (DMSO/fragment)” value [2] was 3.6.
In the case of `COc1cc(CCC(=O)Oc2c(F)c(F)c(F)c(F)c2F)cc(OC)c1OC` [fragment 23, Pentafluorophenyl 3-(3,4,5-trimethoxyphenyl)propanoate], the “R value (DMSO/fragment)” value [2] is reported as 1.5.
In the case of `O=C(Oc1c(F)c(F)c(F)c(F)c1F)C1CCN(C(=O)OCc2ccccc2)CC1` [fragment 24, 1-Benzyl 4-(pentafluorophenyl) piperidine-1,4-dicarboxylate], the “isoTOP-ABPP reactivity ratio at lysine Q2M389_K302” value [2] is reported as 1.0.
For `O=C(Oc1c(F)c(F)c(F)c(F)c1F)c1ccc2ccccc2n1` [fragment 25, Pentafluorophenyl quinoline-2-carboxylate], the “isoTOP-ABPP reactivity ratio at lysine P60520_K46” value [1] was 1.2.
`O=C(CCc1coc2cc(F)ccc2c1=O)Oc1c(F)c(F)c(F)c(F)c1F` [fragment 26, Pentafluorophenyl 3-(7-fluoro-4-oxo-4H-chromen-3-yl)propanoate] was tested, and the “isoTOP-ABPP reactivity ratio at lysine Q2M389_K302” value [2] was 1.8.
`O=C(CCc1cn(-c2ccccc2)nc1-c1ccccc1)Oc1ccc([N+](=O)[O-])cc1[N+](=O)[O-]` [fragment 29, 2,4-Dinitrophenyl 3-(1,3-diphenyl-1H-pyrazol-4-yl)propanoate] was tested, and the “isoTOP-ABPP reactivity ratio at lysine P60520_K46” value [1] was 0.9 and the “isoTOP-ABPP reactivity ratio at lysine Q2M389_K302” value [2] was 1.1.
For `O=C(Oc1ccc([N+](=O)[O-])cc1[N+](=O)[O-])C(c1ccccc1)c1ccccc1` [fragment 30, 2,4-Dinitrophenyl 2,2-diphenylacetate], the “isoTOP-ABPP reactivity ratio at lysine Q2M389_K302” value [2] was 1.6.
With `O=C(Oc1ccc([N+](=O)[O-])cc1[N+](=O)[O-])c1cc(C(F)(F)F)cc(C(F)(F)F)c1` [fragment 31, 2,4-Dinitrophenyl 3,5-bis(trifluoromethyl)benzoate] the “isoTOP-ABPP reactivity ratio at lysine P60520_K46” value [1] was 1.2.
In the case of `Cn1cc(CC(=O)Oc2ccc([N+](=O)[O-])cc2[N+](=O)[O-])c2ccccc21` [fragment 32, 2,4-Dinitrophenyl 2-(1-methyl-1H-indol-3-yl)acetate], the “isoTOP-ABPP reactivity ratio at lysine P60520_K46” value [1] is reported as 1.1.
In the case of `COc1cc(CCC(=O)Oc2ccc([N+](=O)[O-])cc2[N+](=O)[O-])cc(OC)c1OC` [fragment 33, 2,4-Dinitrophenyl 3-(3,4,5-trimethoxyphenyl)propanoate], the “isoTOP-ABPP reactivity ratio at lysine P60520_K46” value [1] is reported as 1.2 and the “isoTOP-ABPP reactivity ratio at lysine Q2M389_K302” value [2] is reported as 0.9.
For `O=C(Oc1ccc([N+](=O)[O-])cc1[N+](=O)[O-])c1ccc2ccccc2n1` [fragment 35, 2,4-Dinitrophenyl quinoline-2-carboxylate], the “isoTOP-ABPP ratio (R) at liganded lysine P60520_K46” value [1] was 0.9 and the “isoTOP-ABPP ratio (R) at liganded lysine Q2M389_K302” value [2] was 1.4.
In the case of `O=C(CCc1coc2cc(F)ccc2c1=O)Oc1ccc([N+](=O)[O-])cc1[N+](=O)[O-]` [fragment 36, 2,4-Dinitrophenyl 3-(7-fluoro-4-oxo-4H-chromen-3-yl)propanoate], the “isoTOP-ABPP ratio (R) at liganded lysine Q2M389_K302” value [2] is reported as 1.2.
For `O=C(Oc1ccc([N+](=O)[O-])cc1[N+](=O)[O-])c1ccc(-c2ccccc2)cc1` [fragment 37, 2,4-Dinitrophenyl [1,1′-biphenyl]-4-carboxylate], the “isoTOP-ABPP ratio (R) at liganded lysine P60520_K46” value [1] was 0.8 and the “isoTOP-ABPP ratio (R) at liganded lysine Q2M389_K302” value [2] was 0.9.
`O=C(CC12CC3CC(CC(C3)C1)C2)Oc1ccc([N+](=O)[O-])cc1[N+](=O)[O-]` [fragment 38, 2,4-Dinitrophenyl 2-(adamantan-1-yl)acetate] was tested, and the “isoTOP-ABPP ratio (R) at liganded lysine P60520_K46” value [1] was 1.0.
In the case of `O=C(Oc1ccc([N+](=O)[O-])cc1[N+](=O)[O-])c1ccc(Oc2ccccc2)cc1` [fragment 39, 2,4-Dinitrophenyl 4-phenoxybenzoate], the “isoTOP-ABPP ratio (R) at liganded lysine P60520_K46” value [1] is reported as 0.8 and the “isoTOP-ABPP ratio (R) at liganded lysine Q2M389_K302” value [2] is reported as 1.2.
`O=C(Oc1ccc([N+](=O)[O-])cc1[N+](=O)[O-])c1ccccc1Nc1cccc(C(F)(F)F)c1` [fragment 40, 2,4-Dinitrophenyl 2-((3-(trifluoromethyl)phenyl)amino)benzoate] was tested, and the “isoTOP-ABPP ratio (R) at liganded lysine Q2M389_K302” value [2] was 0.9.
`CC(C)(C)OC(=O)NCCCC(=O)Oc1ccc([N+](=O)[O-])cc1[N+](=O)[O-]` [fragment 41, 2,4-Dinitrophenyl 4-((tert-butoxycarbonyl)amino)butanoate] was tested, and the “isoTOP-ABPP ratio (R) at liganded lysine P60520_K46” value [1] was 1.0 and the “isoTOP-ABPP ratio (R) at liganded lysine Q2M389_K302” value [2] was 1.5.
With `O=C(Oc1ccc([N+](=O)[O-])cc1[N+](=O)[O-])C(c1ccccc1)(c1ccccc1)c1ccccc1` [fragment 42, 2,4-Dinitrophenyl 2,2,2-triphenylacetate] the “isoTOP-ABPP ratio (R) at liganded lysine P60520_K46” value [1] was 0.9.
In the case of `N#Cc1ccc(C(=O)Oc2ccc([N+](=O)[O-])cc2[N+](=O)[O-])cc1` [fragment 44, 2,4-Dinitrophenyl 4-cyanobenzoate], the “isoTOP-ABPP ratio, lysine P60520_K46” value ([1]; 50 uM_231_sol_in vitro) is reported as 0.9 and the “isoTOP-ABPP ratio, lysine Q2M389_K302” value ([2]; 50 uM_231_sol_in vitro) is reported as 1.3.
With `O=C(CCc1ccc2c(c1)OCO2)Oc1ccc([N+](=O)[O-])cc1[N+](=O)[O-]` [fragment 45, 2,4-Dinitrophenyl 3-(benzo[d][1,3]dioxol-5-yl)propanoate] the “isoTOP-ABPP ratio, lysine P60520_K46” value ([1]; 50 uM_231_sol_in vitro) was 1.0 and the “isoTOP-ABPP ratio, lysine Q2M389_K302” value ([2]; 50 uM_231_sol_in vitro) was 1.2.
`O=C(Oc1c(F)c(F)c(C(F)(F)F)c(F)c1F)c1cc(C(F)(F)F)cc(C(F)(F)F)c1` [fragment 47, 2,3,5,6-Tetrafluoro-4-(trifluoromethyl)phenyl 3,5-bis(trifluoromethyl)benzoate] was tested, and the “isoTOP-ABPP ratio, lysine P60520_K46” value ([1]; 50 uM_231_sol_in vitro) was 1.0.
In the case of `O=C(Oc1c(F)c(F)cc(F)c1F)c1cc(C(F)(F)F)cc(C(F)(F)F)c1` [fragment 48, 2,3,5,6-Tetrafluorophenyl 3,5-bis(trifluoromethyl)benzoate], the “isoTOP-ABPP ratio, lysine P60520_K46” value ([1]; 50 uM_231_sol_in vitro) is reported as 0.9.
In the case of `COC(=O)NC(=NC(=O)OCC1c2ccccc2-c2ccccc21)n1cccn1` [fragment 49, N-Methoxycarbonyl-N′-9-fluorenylmethoxycarbonyl-pyrazole-1-carboxamidine], the “isoTOP-ABPP ratio, lysine P60520_K46” value ([1]; 100 uM_231_sol_in vitro) is reported as 1.9.
In the case of `CC(C)(C)OC(=O)N=C(NC(=O)OC(C)(C)C)n1cccn1` [fragment 50, reference compound], the “isoTOP-ABPP ratio, lysine P60520_K46” value ([1]; 100 uM_231_sol_in vitro) is reported as 20.0 and the “isoTOP-ABPP ratio, lysine Q2M389_K302” value ([2]; 100 uM_231_sol_in vitro) is reported as 5.3.
For `NC(=O)c1cc(C(F)(F)F)cc(C(F)(F)F)c1` [fragment 51, reference compound], the “isoTOP-ABPP ratio, lysine P60520_K46” value ([1]; 50 uM_231_sol_in vitro) was 1.0 and the “isoTOP-ABPP ratio, lysine Q2M389_K302” value ([2]; 50 uM_231_sol_in vitro) was 1.5.
